Measurements reported in patent US5383848A, “Iontophoretic administration of drugs” (Gensia, Inc., priority 1991, dated 1995).
“And” between values parts separate entries of the source, which are not always exact repeats. Equal entries are not always repeated.

Key:
elevated heart rate [1] = assay: In vivo dog experiments: heart rate offset after iontophoretic ESA drug with pretreatment (Example A); set-up: species or system labrador dogs; details: for Offset Slope Component (0-5) min: 0-5 min after heart rate begins to decline; for Offset Slope Component (5-10) min: 5-10 min after decline begins; for Offset Slope Component (10-30) min: 10-30 min after decline begins; for Change in Heart Rate (peak minus baseline) / Peak Heart Rate: Table II; for Total time (startup) thru offset plateau: in words: Table IV; for Onset Slope: baseline at onset time to peak heart rate; for Decline in heart rate after ESA drug without pretreatment: control runs, hydrochloride; for Offset time: drug delivery stopped until within 20 bpm of baseline; for Offset Slope: drug shut-off to 20 bpm above baseline; for Delay: drug shut-off to start of heart rate decline; for Onset time: start of delivery to start of increase in heart rate; for Time Start Decline: time when elevated heart rate began to decline
elevated heart rate [2] = assay: Additional in vivo dog experiments: dermal clearance enhancer pretreatment then arbutamine TDI (Example C); set-up: species or system labrador dogs; details: for CHANGE IN HEART RATE / DELAY TIME / TIME TO REACH 10% DECLINE IN HEART RATE / TIME TO REACH 20% DECLINE IN HEART RATE / TIME TO REACH 30% DECLINE IN HEART RATE / TIME TO REACH 40% DECLINE IN HEART RATE / TIME TO REACH 50% DECLINE IN HEART RATE / HALF-LIFE: single dog run, hydrochloride; for HALF-LIFE: heart rate decline
Procedure: Additional experiments were performed to study the effect of certain compositions on the offset time and dermal clearance in dogs.
In these experiments, the formulation to be tested was applied either topically or by transdermal iontophoresis (TDI) as described below.
Six labrador dogs (20 to 30 kg) were trained to lie quietly on a table. Before each experiment, three ECG electrodes (one lead) were applied on shaved areas of the back (near the front legs) to obtain the heart rate. The outer hind leg area (either right or left) was shaved prior to each experiment, with care taken not to cut or visibly damage the skin. The area was cleaned with soap and water and the skin was then […] using an alcohol swab followed by skin preparation with 3M One-Step-Prep™ tape.
Each vasodilator that was delivered by TDI used a 1.8 cm^2 electrode (Graphic Controls, Buffalo, N.Y.) containing the vasodilator in a gel at the concentrations listed in experimental methods section. In all experiments, an indifferent electrode containing a phosphate-buffered-saline gel was applied to the skin in conjunction with the electrode containing the vasodilator. Each vasodilator tested was applied for 10 minutes using a current of 0.6 mA/cm^2. During this time the heart rate was continuously recorded (at 5 second intervals) with the ESA Research System. The delivery electrodes were then removed, and any excess gel adhering to the skin was gently removed using a tissue.
Each topically applied vasodilator was applied to the skin in a volume of approximately 0.25 ml. The agent was allowed to absorb into the skin, during which time the heart rate was continuously recorded for 10 minutes using the ESA Research System.
To test if heat alone would produce sufficient vasodilation, a 60° C. hot pack was applied to the skin 10 minutes prior to drug delivery, during which time the heat rate was continuously recorded by the ESA System. Once drug delivery electrodes were applied, the heat pack was reheated and placed on top of them for the duration of the study.
The purpose of this treatment was to produce an elevated heart rate response of at least 40 beats-per-minute above baseline lasting for at least 30 minutes.
^1/ The dose (ITCA) was calculated by multiplying the applied current density (mA/cm^2) by the duration of delivery (minutes) and the drug concentration (%) and the area of the electrode (cm^2). […] The units of ITCA are mA.minutes.
The important variables for this analysis are:
1) delay between time when drug administration was stopped and start of decline in heart rate;
2) the time (minutes) to reach successive percent levels (i.e. 10, 20, 30, 40, and 50% decline) from the point of maximum change in heart rate^2.
3) the half-life (minutes) of the heart rate decline obtained from an exponential fit of the offset slope.
A combination of over-the-counter (OTC) and proprietary formulations were selected for comparison. […] Two dogs received each treatment at least one time.
The six dogs are identified in the table as BA, BB, BO, MI, PO and SA, followed by the experimental identification number. These dogs received control (no pretreatment) and five DCE pretreatment regimens.

[3] = Preclinical and clinical studies using intravenous (IV) infusion of an ESA drug; details: in vivo, read-out: Pharmacokinetic and pharmacodynamic half-life
Procedure: Referring to FIG. 3, dog "PO", 0.08 microgram of GP 2-121-3 per kilogram of dog body weight per minute was administered over a 7 minute period. Referring to FIG. 4, dog "BO", 0.10 microgram of GP 2-121-3per kilogram per minute was administered over a 10 minute period.

[4] = Protein binding of arbutamine to albumin in IPPSF perfusate; assay type: in vitro ADME; details: bovine, IPPSF perfusate media

**Q.** What does the source list for Cl.Oc1ccc(CCCCNCC(O)c2ccc(O)c(O)c2)cc1 (stereo not drawn) [Arbutamine, 1-(3,4-dihydroxy-phenyl)-2-(4-(4-hydroxyphenyl)butylamino)ethanol hydrochloride]?
**A.** Offset Slope Component (0-5) min (elevated heart rate [1]; listed as 1, hydrochloride): -0.40 beats per minute per minute; Offset Slope Component (0-5) min (elevated heart rate [1]; listed as 2, hydrochloride): -3.70 beats per minute per minute; Offset Slope Component (5-10) min (elevated heart rate [1]; listed as 1, hydrochloride): -0.80 beats per minute per minute; Offset Slope Component (5-10) min (elevated heart rate [1]; listed as 2, hydrochloride): 1.70 beats per minute per minute; Offset Slope Component (10-30) min (elevated heart rate [1]; listed as 1, hydrochloride): -0.02 beats per minute per minute; Offset Slope Component (10-30) min (elevated heart rate [1]; listed as 2, hydrochloride): -0.50 beats per minute per minute; Change in Heart Rate (peak minus baseline) (elevated heart rate [1]; listed as 1, hydrochloride): 56 bpm; Peak Heart Rate (elevated heart rate [1]; listed as 1, hydrochloride): 123 bpm; Change in Heart Rate (peak minus baseline) (elevated heart rate [1]; listed as 2, hydrochloride): 87 bpm; Peak Heart Rate (elevated heart rate [1]; listed as 2, hydrochloride): 160 bpm; Total time (startup) thru offset plateau: in words (elevated heart rate [1]; listed as 1, hydrochloride): Never reached to w/in 20 bpm of baseline; Total time (startup) thru offset plateau: in words (elevated heart rate [1]; listed as 2, hydrochloride): Never reached to w/in 20 bpm pf baseline; Onset Slope (elevated heart rate [1]; listed as 1, hydrochloride): 6.80 beats per minute per minute; Onset Slope (elevated heart rate [1]; listed as 2, hydrochloride): 17.60 beats per minute per minute; Decline in heart rate after ESA drug without pretreatment (elevated heart rate [1]): essentially no reduction in heart rate; Decline in heart rate after ESA drug without pretreatment (elevated heart rate [1]; listed as ESA™ drug): no decline in heart rate during the first hour; Offset time (elevated heart rate [1]; listed as 1, hydrochloride): 29.00 min; Offset time (elevated heart rate [1]; listed as 2, hydrochloride): 39.00 min; Offset Slope (elevated heart rate [1]; listed as 1, hydrochloride): -0.30 beats per minute per minute; Offset Slope (elevated heart rate [1]; listed as 2, hydrochloride): -0.25 beats per minute per minute; Delay (elevated heart rate [1]; listed as 1, hydrochloride): 1.50 min; Delay (elevated heart rate [1]; listed as 2, hydrochloride): 7.00 min; Onset time (elevated heart rate [1]; listed as 1, hydrochloride): 9.00 min; Onset time (elevated heart rate [1]; listed as 2, hydrochloride): 5.00 min; Time Start Decline (elevated heart rate [1]; listed as 1, hydrochloride): 14.00 min; Time Start Decline (elevated heart rate [1]; listed as 2, hydrochloride): 12.50 min; experimental half-life (elevated heart rate [2]): 31 min; heart rate following TDI arbutamine without pretreatment (elevated heart rate [2]; FIGS. 3 and 4): prolonged elevation of heart rate; CHANGE IN HEART RATE, Mean (elevated heart rate [2]; Table VII, mean of runs): 74.68 BPM; DELAY TIME, Mean (elevated heart rate [2]; Table VII, mean of runs): 7.10 min; HALF-LIFE, Mean (elevated heart rate [2]; Table VII, mean of runs): 30.91 min; TIME TO REACH 10% DECLINE IN HEART RATE, Mean (elevated heart rate [2]; Table VII, mean of runs): 10.19 min; TIME TO REACH 20% DECLINE IN HEART RATE, Mean (elevated heart rate [2]; Table VII, mean of runs): 15.98 min; TIME TO REACH 30% DECLINE IN HEART RATE, Mean (elevated heart rate [2]; Table VII, mean of runs): 21.96 min; TIME TO REACH 40% DECLINE IN HEART RATE, Mean (elevated heart rate [2]; Table VII, mean of runs): 27.72 min; TIME TO REACH 50% DECLINE IN HEART RATE, Mean (elevated heart rate [2]; Table VII, mean of runs): 31.37 min; CHANGE IN HEART RATE (elevated heart rate [2]; Table VII, listed as Control): 52.17 BPM and 123.25 BPM and 60.00 BPM and 88.00 BPM and 87.00 BPM and 63.00 BPM and 78.80 BPM and 54.05 BPM and 88.07 BPM and 94.17 BPM and 54.44 BPM and 58.44 BPM and 77.47 BPM and 82.88 BPM and 77.08 BPM; DELAY TIME (elevated heart rate [2]; Table VII, listed as Control): 1.57 min and 1.00 min and 60.00 min and 5.50 min and 7.00 min and 5.10 min and 3.66 min and 2.28 min and 0.00 min and 1.67 min and 3.10 min and 9.20 min and 8.54 min and 1.99 min and 1.44 min; TIME TO REACH 10% DECLINE IN HEART RATE (elevated heart rate [2]; Table VII, listed as Control): 3.20 min and 6.24 min and 60.00 min and 7.07 min and 9.35 min and 8.80 min and 5.53 min and 4.53 min and 2.28 min and 9.66 min and 7.04 min and 10.79 min and 9.50 min and 4.00 min and 4.04 min; TIME TO REACH 20% DECLINE IN HEART RATE (elevated heart rate [2]; Table VII, listed as Control): 4.83 min and 9.16 min and 60.00 min and 98.65 min and 11.70 min and 7.41 min and 6.79 min and 4.55 min and 19.65 min and 16.54 min and 23.38 min and 10.47 min and 5.04 min and 6.82 min; TIME TO REACH 30% DECLINE IN HEART RATE (elevated heart rate [2]; Table VII, listed as Control): 6.46 min and 12.67 min and 60.00 min and 10.21 min and 14.16 min and 9.91 min and 9.23 min and 10.58 min and 29.56 min and 23.02 min and 13.98 min and 11.43 min and 8.54 min and 11.63 min; TIME TO REACH 40% DECLINE IN HEART RATE (elevated heart rate [2]; Table VII, listed as Control): 19.07 min and 17.19 min and 60.00 min and 16.92 min and 18.71 min and 13.84 min and 11.73 min and 22.82 min and 29.50 min and 16.23 min and 12.39 min and 11.49 min and 13.58 min; TIME TO REACH 50% DECLINE IN HEART RATE (elevated heart rate [2]; Table VII, listed as Control): 22.93 min and 21.70 min and 60.00 min and 24.25 min and 24.54 min and 25.97 min and 16.68 min and 30.00 min and 33.10 min and 18.58 min and 113.35 min and 15.32 min and 15.52 min; CHANGE IN HEART RATE (elevated heart rate [2]; Table VII, listed as control): 56.00 BPM; DELAY TIME (elevated heart rate [2]; Table VII, listed as control): 1.50 min; TIME TO REACH 10% DECLINE IN HEART RATE (elevated heart rate [2]; Table VII, listed as control): 11.00 min; TIME TO REACH 20% DECLINE IN HEART RATE (elevated heart rate [2]; Table VII, listed as control): 60.00 min; TIME TO REACH 30% DECLINE IN HEART RATE (elevated heart rate [2]; Table VII, listed as control): 60.00 min; TIME TO REACH 40% DECLINE IN HEART RATE (elevated heart rate [2]; Table VII, listed as control): 60.00 min; TIME TO REACH 50% DECLINE IN HEART RATE (elevated heart rate [2]; Table VII, listed as control): 60.00 min; HALF-LIFE (elevated heart rate [2]; Table VII, listed as Control): 12.53 min and 60.00 min and 20.60 min and 13.72 min and 25.09 min and 52.48 min and 2.42 min and 12.81 min and 9.60 min; HALF-LIFE (elevated heart rate [2]; Table VII, listed as control): 60.00 min; HALF-LIFE [3]: ~7 min; fraction unbound [4]: 0.36
